#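 A five-concentration, 48-hour dose response in 96-well plates underlies each endpoint, interpolated linearly between surrounding concentrations. GI50 marks 50% less growth. TGI marks complete inhibition of growth.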
# Tests used:
# Assay in all cases: DTP human tumour cell line panel, 48 h
# UACC-257 melanoma = tested on: UACC-257 melanoma
# T-47D breast = tested on: T-47D breast
# NCI-H522 lung = tested on: NCI-H522 lung
# SNB-19 CNS = tested on: SNB-19 CNS
# HL-60(TB) leukemia = tested on: HL-60(TB) leukemia
# MALME-3M melanoma = tested on: MALME-3M melanoma
# IGROV1 ovarian = tested on: IGROV1 ovarian
# MOLT-4 leukemia = tested on: MOLT-4 leukemia
# HOP-92 NSCLC = tested on: HOP-92 NSCLC
# A549 NSCLC = tested on: A549 NSCLC
# UO-31 renal = tested on: UO-31 renal
# M14 melanoma = tested on: M14 melanoma
# LOX IMVI melanoma = tested on: LOX IMVI melanoma
# NCI-H23 lung = tested on: NCI-H23 lung
# HCC-2998 colon = tested on: HCC-2998 colon
# U251 CNS = tested on: U251 CNS
# OVCAR-3 ovarian = tested on: OVCAR-3 ovarian
# OVCAR-8 ovarian = tested on: OVCAR-8 ovarian
# A498 renal = tested on: A498 renal
# ACHN renal = tested on: ACHN renal
# OVCAR-5 ovarian = tested on: OVCAR-5 ovarian
# HOP-62 NSCLC = tested on: HOP-62 NSCLC
# MDA-MB-435 = tested on: MDA-MB-435
# HCT-15 colon = tested on: HCT-15 colon
# SW-620 colon = tested on: SW-620 colon
# HT29 colon = tested on: HT29 colon
# SK-MEL-2 melanoma = tested on: SK-MEL-2 melanoma
# SK-MEL-5 melanoma = tested on: SK-MEL-5 melanoma
# CCRF-CEM leukemia = tested on: CCRF-CEM leukemia
# KM12 colon = tested on: KM12 colon
# NCI-H226 lung = tested on: NCI-H226 lung
# COLO 205 colon = tested on: COLO 205 colon
# MCF7 breast = tested on: MCF7 breast
# NCI/ADR-RES ovarian = tested on: NCI/ADR-RES ovarian
# UACC-62 melanoma = tested on: UACC-62 melanoma
# DU-145 prostate = tested on: DU-145 prostate
# RPMI-8226 leukemia = tested on: RPMI-8226 leukemia
# HS 578T breast = tested on: HS 578T breast
# SF-295 CNS = tested on: SF-295 CNS
# SNB-75 CNS = tested on: SNB-75 CNS
# PC-3 prostate = tested on: PC-3 prostate
# SN12C renal = tested on: SN12C renal
# SK-OV-3 ovarian = tested on: SK-OV-3 ovarian
# HCT-116 colon = tested on: HCT-116 colon
# K-562 leukemia = tested on: K-562 leukemia
# MDA-MB-231 breast = tested on: MDA-MB-231 breast
# SF-539 CNS = tested on: SF-539 CNS
# OVCAR-4 ovarian = tested on: OVCAR-4 ovarian
# 786-0 renal = tested on: 786-0 renal
# SK-MEL-28 melanoma = tested on: SK-MEL-28 melanoma
# TK-10 renal = tested on: TK-10 renal
# NCI-H460 lung = tested on: NCI-H460 lung
# RXF 393 renal = tested on: RXF 393 renal
# SF-268 CNS = tested on: SF-268 CNS
# CAKI-1 renal = tested on: CAKI-1 renal
# EKVX NSCLC = tested on: EKVX NSCLC
compound,measurement,setting,value
Clc1ccc2c(N3CCC(CCC4CCN(c5ncnc6cc(Cl)ccc56)CC4)CC3)ncnc2c1,GI50,UACC-257 melanoma,61 µM
CC(=O)[O-].CC(=O)[O-].[NH2-].[Pt+2].c1ccc2cnccc2c1,GI50,T-47D breast,1.61 µM
same,TGI,T-47D breast,24.7 µM
same,GI50,NCI-H522 lung,12.4 µM
same,TGI,NCI-H522 lung,24.9 µM
same,GI50,SNB-19 CNS,> 100 µM
same,TGI,SNB-19 CNS,> 100 µM
same,GI50,HL-60(TB) leukemia,9.62 µM
same,TGI,HL-60(TB) leukemia,87.5 µM
same,GI50,MALME-3M melanoma,12.9 µM
same,TGI,MALME-3M melanoma,> 100 µM
same,GI50,IGROV1 ovarian,24.6 µM
same,TGI,IGROV1 ovarian,> 100 µM
same,GI50,MOLT-4 leukemia,1.4 µM
same,TGI,MOLT-4 leukemia,27.3 µM
same,GI50,HOP-92 NSCLC,16.2 µM
same,TGI,HOP-92 NSCLC,90.6 µM
same,GI50,A549 NSCLC,0.147 µM
same,TGI,A549 NSCLC,15.7 µM
same,GI50,UO-31 renal,22.9 µM
same,TGI,UO-31 renal,97.5 µM
same,GI50,M14 melanoma,59.1 µM
same,TGI,M14 melanoma,> 100 µM
same,GI50,LOX IMVI melanoma,9.19 µM
same,TGI,LOX IMVI melanoma,31.7 µM
same,GI50,NCI-H23 lung,47.7 µM
same,TGI,NCI-H23 lung,> 100 µM
same,GI50,HCC-2998 colon,> 100 µM
same,TGI,HCC-2998 colon,> 100 µM
same,GI50,U251 CNS,6.26 µM
same,TGI,U251 CNS,20.3 µM
same,GI50,OVCAR-3 ovarian,42.2 µM
same,TGI,OVCAR-3 ovarian,> 100 µM
same,GI50,OVCAR-8 ovarian,3.72 µM
same,TGI,OVCAR-8 ovarian,21.7 µM
same,GI50,A498 renal,> 100 µM
same,TGI,A498 renal,> 100 µM
same,GI50,ACHN renal,2.26 µM
same,TGI,ACHN renal,13.4 µM
same,GI50,OVCAR-5 ovarian,> 100 µM
same,TGI,OVCAR-5 ovarian,> 100 µM
same,GI50,HOP-62 NSCLC,74.5 µM
same,TGI,HOP-62 NSCLC,> 100 µM
same,GI50,MDA-MB-435,> 100 µM
same,TGI,MDA-MB-435,> 100 µM
same,TGI,UACC-257 melanoma,6.49 µM
same,GI50,HCT-15 colon,16.9 µM
same,TGI,HCT-15 colon,45.8 µM
same,GI50,SW-620 colon,16.2 µM
same,TGI,SW-620 colon,38.3 µM
same,GI50,HT29 colon,24.5 µM
same,TGI,HT29 colon,> 100 µM
same,GI50,SK-MEL-2 melanoma,36 µM
same,TGI,SK-MEL-2 melanoma,> 100 µM
same,GI50,SK-MEL-5 melanoma,38.4 µM
same,TGI,SK-MEL-5 melanoma,> 100 µM
same,GI50,CCRF-CEM leukemia,14.1 µM
same,TGI,CCRF-CEM leukemia,> 100 µM
same,GI50,KM12 colon,13.5 µM
same,TGI,KM12 colon,> 100 µM
same,GI50,NCI-H226 lung,47.4 µM
same,TGI,NCI-H226 lung,> 100 µM
same,GI50,COLO 205 colon,24.7 µM
same,TGI,COLO 205 colon,> 100 µM
same,GI50,MCF7 breast,11.3 µM
same,TGI,MCF7 breast,42.8 µM
same,GI50,NCI/ADR-RES ovarian,64.4 µM
same,TGI,NCI/ADR-RES ovarian,> 100 µM
same,GI50,UACC-62 melanoma,30.3 µM
same,TGI,UACC-62 melanoma,> 100 µM
same,GI50,DU-145 prostate,12.2 µM
same,TGI,DU-145 prostate,64.2 µM
same,GI50,RPMI-8226 leukemia,27.7 µM
same,TGI,RPMI-8226 leukemia,> 100 µM
same,GI50,HS 578T breast,60.4 µM
same,TGI,HS 578T breast,> 100 µM
same,GI50,SF-295 CNS,> 100 µM
same,TGI,SF-295 CNS,> 100 µM
same,GI50,SNB-75 CNS,> 100 µM
same,TGI,SNB-75 CNS,> 100 µM
same,GI50,PC-3 prostate,> 100 µM
same,TGI,PC-3 prostate,> 100 µM
same,GI50,SN12C renal,28.6 µM
same,TGI,SN12C renal,> 100 µM
same,GI50,SK-OV-3 ovarian,> 100 µM
same,TGI,SK-OV-3 ovarian,> 100 µM
same,GI50,HCT-116 colon,15.1 µM
same,TGI,HCT-116 colon,33.7 µM
same,GI50,K-562 leukemia,15.6 µM
same,TGI,K-562 leukemia,51.8 µM
same,GI50,MDA-MB-231 breast,27.3 µM
same,TGI,MDA-MB-231 breast,> 100 µM
same,GI50,SF-539 CNS,4.83 µM
same,TGI,SF-539 CNS,43.8 µM
same,GI50,OVCAR-4 ovarian,22.3 µM
same,TGI,OVCAR-4 ovarian,> 100 µM
same,GI50,786-0 renal,37.9 µM
same,TGI,786-0 renal,> 100 µM
same,GI50,SK-MEL-28 melanoma,52.6 µM
same,TGI,SK-MEL-28 melanoma,> 100 µM
same,GI50,TK-10 renal,15.5 µM
same,TGI,TK-10 renal,90.7 µM
same,GI50,NCI-H460 lung,26.2 µM
same,TGI,NCI-H460 lung,> 100 µM
same,GI50,RXF 393 renal,0.0522 µM
same,TGI,RXF 393 renal,24 µM
same,GI50,SF-268 CNS,18.8 µM
same,TGI,SF-268 CNS,> 100 µM
same,GI50,CAKI-1 renal,55.1 µM
same,TGI,CAKI-1 renal,> 100 µM
Cc1cccc(C(O)c2ccncc2)c1O (stereo unspecified),TGI,T-47D breast,> 100 µM
same,TGI,NCI-H522 lung,> 100 µM
same,TGI,SNB-19 CNS,> 100 µM
same,TGI,HL-60(TB) leukemia,> 100 µM
same,TGI,MOLT-4 leukemia,> 100 µM
same,TGI,A549 NSCLC,> 100 µM
same,TGI,UO-31 renal,> 100 µM
same,TGI,M14 melanoma,> 100 µM
same,TGI,LOX IMVI melanoma,> 100 µM
same,TGI,NCI-H23 lung,> 100 µM
same,TGI,HCC-2998 colon,> 100 µM
same,TGI,U251 CNS,> 100 µM
same,TGI,OVCAR-3 ovarian,> 100 µM
same,TGI,OVCAR-8 ovarian,> 100 µM
same,TGI,ACHN renal,> 100 µM
same,TGI,HOP-62 NSCLC,> 100 µM
same,TGI,UACC-257 melanoma,> 100 µM
same,TGI,HCT-15 colon,> 100 µM
same,TGI,SK-MEL-5 melanoma,> 100 µM
same,TGI,CCRF-CEM leukemia,> 100 µM
same,TGI,KM12 colon,> 100 µM
same,TGI,NCI-H226 lung,> 100 µM
same,TGI,NCI/ADR-RES ovarian,> 100 µM
same,TGI,UACC-62 melanoma,> 100 µM
same,TGI,DU-145 prostate,> 100 µM
same,TGI,HS 578T breast,> 100 µM
same,TGI,EKVX NSCLC,> 100 µM
same,TGI,SF-295 CNS,> 100 µM
same,TGI,SNB-75 CNS,> 100 µM
same,TGI,PC-3 prostate,> 100 µM
same,TGI,SN12C renal,> 100 µM
same,TGI,HCT-116 colon,> 100 µM
same,TGI,K-562 leukemia,> 100 µM
same,TGI,SF-539 CNS,> 100 µM
same,TGI,RXF 393 renal,> 100 µM
same,TGI,SF-268 CNS,> 100 µM

# — PubChem BioAssay (NCI)
